# From US12679843B2, “Pyrrolopyrimidine amines as complement inhibitors” (BioCryst Pharmaceuticals, Inc., priority 2020, dated 2026)
# Target: Factor D (Homo sapiens, UniProt P00746)
# Assay: Factor D esterolytic assay (Z-Lys-SBzl thioester substrate, DTNB, 405 nm)
# Format: biochemical
# Settings: substrate Z-Lys-SBzl 1.29 mM, 100 mM HEPES, 500 mM NaCl, pH 7.5, 10% DMSO, tested a minimum of three times
# Experimental: The IC50 value of a compound (i.e., the concentration of the compound that inhibits 50% of the enzymatic activity) was calculated according to the procedure reported in U.S. Pat. No. 6,653,340 B1, e.g., column 74 (incorporated by reference).
# Specifically, the compounds were dissolved in a stock solution of DMSO at 10.0 or 100 mM. A portion of this stock solution was added to assay buffer in a final volume of 50 μL. Controls included buffer alone and enzyme solutions to which DMSO was added. Substrate was added to the reaction wells immediately or after incubation at room temperature. The reaction rates were measured spectrophotometrically by the generation of product at 405 nm for 600 sec. Background absorbance at 690 nm was measured and subtracted from the absorbance at 405 nm for each well.
# The reaction rate for enzyme alone was compared to the rate of enzyme in the presence of inhibitor and the percent inhibition was calculated as shown below: Percent Inhibition=[Rate without inhibitor−Rate with inhibitor)/(Rate without inhibitor)]−100 Factor D Esterolytic Assay:
# An established esterolytic assay for the measurement of Factor D activity and inhibition of Factor D activity was used (Kam, C. M.; McRae, B. J.; Harper, J. W.; Niemann, M. A.; Volanakis, J. E.; Powers, J. C. Human complement proteins D. C2, and B Active site mapping with peptide thioester substrates. J Biol. Chem. 1987, 262, 3444-3451). For this assay Z-Lys-SBzl, 1.29 mM (Kim, S.; Narayana, S. V. L; Volanakis, J. E. Mutational analysis of the substrate binding site of human complement Factor D. Biochemistry, 1994, 33, 14393-14399) was used as the substrate for Factor D ([…]). Hydrolysis of this compound by Factor D liberated a free sulfhydryl group which is then reacted with 5,5′-dithiobis(2-nitrobenzoic acid) producing an intense yellow color (Habeeb, A. F. S. A. Reaction of protein sulfhydryl groups with Ellman's Reagent. Methods in Enzymol. 1976, 25, 457-464). The assays were performed in 96 well microtiter plates and rates of hydrolysis were monitored at 405 nm on a Biotek Synergy H1 plate reader. Hydrolysis rates were reported as change in mOD/min. The assay was conducted in 100 mM HEPES, 500 mM NaCl, pH 7.5 containing 10% DMSO in a final volume of 50 μL per well.
# An IC50, a compound concentration which inhibits 50% of the enzymatic activity, was calculated. Compounds in the examples were tested a minimum of three times.
# Factor D, sequence (P00746 26-253): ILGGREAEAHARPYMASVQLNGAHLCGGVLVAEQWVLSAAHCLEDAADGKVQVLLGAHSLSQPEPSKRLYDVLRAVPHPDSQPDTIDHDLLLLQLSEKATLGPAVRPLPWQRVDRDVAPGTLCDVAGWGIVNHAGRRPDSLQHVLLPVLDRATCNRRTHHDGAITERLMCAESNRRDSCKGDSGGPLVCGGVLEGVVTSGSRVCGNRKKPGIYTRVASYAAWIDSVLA
row,IC50 [nM],SMILES
1,> 1000,"Cc1ccc2c(c1)c1c(N)ncnc1n2C(C)C(=O)N1[C@@H]2C[C@@H]2C[C@H]1C(=O)Nc1cccc(Br)n1 (single isomer, unassigned) [Compound 22d]"
2,100 to 1000,"Nc1ncnc2c1cc1n2C(C(=O)N2[C@@H](C(=O)Nc3cccc(Br)n3)C[C@@H]3C[C@@H]32)Oc2ccccc2-1 (single isomer, unassigned) [Compound 293a]"
3,> 1000,"Cc1ccc(Br)nc1NC(=O)[C@@H]1C[C@H]2C[C@H]2N1C(=O)Cc1ccc2c(N)ncnn12 [Compound 2d, (1R,3S,5R)-2-(2-(4-aminopyrrolo[2,1-f][1,2,4]triazin-7-yl)acetyl)-N-(6-bromo-3-methylpyridin-2-yl)-2-azabicyclo[3.1.0]hexane-3-carboxamide]"
4,< 100,"Nc1ncnc2c1c1ccccc1n2CC(=O)N1[C@@H]2C[C@@H]2C[C@H]1C(=O)Nc1cccc(Br)n1 [Compound 4b, (1R,3S,5R)-2-(2-(4-amino-9H-pyrimido[4,5-b]indol-9-yl)acetyl)-N-(6-bromopyridin-2-yl)-2-azabicyclo[3.1.0]hexane-3-carboxamide]"
5,< 100,"Cc1ccc2c(c1)c1c(N)ncnc1n2CC(=O)N1C[C@H](F)C[C@H]1C(=O)NCc1cccc(Cl)c1F [Compound 7b, (2S,4R)-1-(2-(4-amino-6-methyl-9H-pyrimido[4,5-b]indol-9-yl)acetyl)-N-(3-chloro-2-fluorobenzyl)-4-fluoropyrrolidine-2-carboxamide]"

# The next lines start with the compound.
row,SMILES,IC50 [nM]
1,"CC1(C)CC(O)CC(NC(=O)[C@@H]2C[C@H]3C[C@H]3N2C(=O)Cn2cnc3c(N)ncnc32)C1 (mixture of isomers) [Compound 106b, (1R,3S,5R)-2-(2-(6-amino-9H-purin-9-yl)acetyl)-N-(5-hydroxy-3,3-dimethylcyclohexyl)-2-azabicyclo[3.1.0]hexane-3-carboxamide]",> 1000
2,"Cc1ccc2c(c1)c1c(N)ncnc1n2C(C)C(=O)N1[C@@H]2C[C@@H]2C[C@H]1C(=O)Nc1cccc(Br)n1 (single isomer, unassigned) [Compound 22c]",> 1000
3,"Nc1ncnc2c1cc1n2C(C(=O)N2[C@@H](C(=O)Nc3cccc(Br)n3)C[C@@H]3C[C@@H]32)Oc2ccccc2-1 (single isomer, unassigned) [Compound 293b]",< 100
4,"Cc1ccc(Br)nc1NC(=O)[C@@H]1C[C@H]2C[C@H]2N1C(=O)Cn1c2ccccc2c2c(N)ncnc21 [Compound 1e, (1R,3S,5R)-2-(2-(4-amino-9H-pyrimido[4,5-b]indol-9-yl)acetyl)-N-(6-bromo-3-methylpyridin-2-yl)-2-azabicyclo[3.1.0]hexane-3-carboxamide]",< 100
5,"Cc1ccc(Br)nc1NC(=O)[C@@H]1C[C@@H](F)CN1C(=O)Cn1c2ccccc2c2c(N)ncnc21 [Compound 3b, (2S,4R)-1-(2-(4-amino-9H-pyrimido[4,5-b]indol-9-yl)acetyl)-N-(6-bromo-3-methylpyridin-2-yl)-4-fluoropyrrolidine-2-carboxamide]",< 100
6,"Nc1ncnc2c1ccn2CC(=O)N1C[C@H](F)C[C@H]1C(=O)Nc1cccc(Br)n1 [Compound 5e, (2S,4R)-1-(2-(4-amino-7H-pyrrolo[2,3-d]pyrimidin-7-yl)acetyl)-N-(6-bromopyridin-2-yl)-4-fluoropyrrolidine-2-carboxamide]",100 to 1000
7,"Cc1ccc2c(c1)c1c(N)ncnc1n2CC(=O)N1[C@@H]2C[C@@H]2C[C@H]1C(=O)Nc1cccc(Br)n1 [Compound 6e, (1R,3S,5R)-2-(2-(4-amino-6-methyl-9H-pyrimido[4,5-b]indol-9-yl)acetyl)-N-(6-bromopyridin-2-yl)-2-azabicyclo[3.1.0]hexane-3-carboxamide]",< 100
8,"Cc1ccc2c(c1)c1c(N)ncnc1n2CC(=O)N1[C@H](C(=O)Nc2cccc(Br)n2)C[C@@]2(C)C[C@@H]12 [Compound 8b, (1R,3S,5R)-2-(2-(4-amino-6-methyl-9H-pyrimido[4,5-b]indol-9-yl)acetyl)-N-(6-bromopyridin-2-yl)-5-methyl-2-azabicyclo[3.1.0]hexane-3-carboxamide]",< 100
